Among the data in BindingDB's records for doi:10.1021/jm049408n (University of Camerino, 2005) are Ki values, retold here.

As a reminder, the Ki is a dissociation constant, usually derived from enzyme kinetics or from competition with a known ligand. Read a low Ki as higher affinity.

For the test, the target named is Adenosine receptor A3 (Bos taurus). In words: Displacement of [125I]AB-MECA from adenosine A3 receptors in bovine cortical membranes. (In general: Loss of bound radioactivity is the signal in a displacement assay; it reports binding, not function.)

On to `CNC(=O)[C@H]1O[C@@H](n2cnc3c(NCc4cccc(I)c4)ncnc32)[C@](C)(O)[C@@H]1O` [3,4-Dihydroxy-5-[6-(3-iodo-benzylamino)-purin-9-yl]-4-methyl-tetrahydro-furan-2-carboxylic acid methylamide], for which the affinity, expressed as Ki, was 240 nM.
